The supplement of paper PMC11451515

Legend:
SEM cells [1] = assay: AUC of viability dose-response curve (% viability x log10 dose units); higher = less sensitive; settings: 48 h
In short: (§1)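 Seeding of medium-adapted leukemia cells was at 500 or 1000 cells/well in 1536-well plates, followed by 48 h at 37°C with library compounds in DMSO at 11 threefold doses from 47 μM to 0.79 nM. CellTiter-Glo One luminescence was normalised per plate to DMSO and cell-free wells and fitted as a four-parameter log-logistic function of log10 dose. Area under the curve was integrated by trapezoidal rule, with curves exceeding full viability scaled and curves failing quality control removed.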

NOMO1 [2] = assay: as above; settings: 48 h
In short: as §1

P12-Ichikawa [3] = assay: as above; settings: 48 h
In short: as §1

SEM cells [4] = assay: cell viability relative to DMSO control; higher = less cytotoxic; settings: 48 h
In short: (§2)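 Before seeding, each leukemia line was adapted for at least four passages in each medium. NOMO1 or SEM cells (500 cells/well) and P12-Ichikawa cells (1000 cells/well) went into 1536-well plates at 5 μl, then received library compounds in DMSO by pin dosing across 11 threefold concentrations, 47 μM to 0.79 nM. Readout was CellTiter-Glo One luminescence after 48 h at 37°C, and viability is given as a per-plate percentage of DMSO wells, with cell-free wells as background.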

NOMO1 [5] = assay: as above; settings: HPLM + 10% dialyzed FBS, 48 h
In short: as §2

P12-Ichikawa [6] = assay: as above; settings: HPLM + 10% dialyzed FBS, 48 h
In short: as §2

CN1CCN(CCOc2cc(OC3CCOCC3)c3c(Nc4c(Cl)ccc5c4OCO5)ncnc3c2)CC1
Settings | AUC of viability dose-response curve | cell viability [%]
NOMO1 [2], HPLM + 10% dialyzed FBS | 428 | –
NOMO1 [2], RPMI 5 mM glucose + 10% FBS | 463 | –
NOMO1 [2], RPMI 5 mM glucose + 10% dialyzed FBS | 459 | –
NOMO1 [5], 0.000781 µM | – | 134
NOMO1 [5], 0.00234 µM | – | 119
NOMO1 [5], 0.00702 µM | – | 125
NOMO1 [5], 0.0211 µM | – | 131
NOMO1 [5], 0.0632 µM | – | 125
NOMO1 [5], 0.19 µM | – | 123
NOMO1 [5], 0.569 µM | – | 134
NOMO1 [5], 1.71 µM | – | 123
NOMO1 [5], 5.12 µM | – | 89.4
NOMO1 [5], 15.4 µM | – | 60.1
NOMO1 [5], 46.1 µM | – | 71.4
P12-Ichikawa [3], HPLM + 10% dialyzed FBS | 410 | –
P12-Ichikawa [3], RPMI 5 mM glucose + 10% FBS | 446 | –
P12-Ichikawa [3], RPMI 5 mM glucose + 10% dialyzed FBS | 429 | –
P12-Ichikawa [6], 0.000781 µM | – | 121
P12-Ichikawa [6], 0.00234 µM | – | 125
P12-Ichikawa [6], 0.00702 µM | – | 130
P12-Ichikawa [6], 0.0211 µM | – | 134
P12-Ichikawa [6], 0.0632 µM | – | 130
P12-Ichikawa [6], 0.19 µM | – | 128
P12-Ichikawa [6], 0.569 µM | – | 136
P12-Ichikawa [6], 1.71 µM | – | 124
P12-Ichikawa [6], 5.12 µM | – | 101
P12-Ichikawa [6], 15.4 µM | – | 32.3
P12-Ichikawa [6], 46.1 µM | – | 20
SEM cells [1], HPLM + 10% dialyzed FBS | 416 | –
SEM cells [1], RPMI 5 mM glucose + 10% FBS | 378 | –
SEM cells [1], RPMI 5 mM glucose + 10% dialyzed FBS | 391 | –

cell viability [%], SEM cells [4]
Settings | HPLM + 10% dialyzed FBS | RPMI 5 mM glucose + 10% FBS
0.000781 µM | 106 | 121
0.00234 µM | 119 | 120
0.00702 µM | 115 | 128
0.0211 µM | 118 | 110
0.0632 µM | 122 | 128
0.19 µM | 126 | 109
0.569 µM | 113 | 85.5
1.71 µM | 116 | 109
5.12 µM | 78.4 | 62.9
15.4 µM | 61.6 | 34.3
46.1 µM | 30.3 | 19.7
